# Assay results published in patent US11414436B2, “Non-coordinating anion type activators containing cation having large alkyl groups” (ExxonMobil Chemical Patents Inc., priority 2018, dated 2022).
# “And” between values parts separate entries of the source, which are not always exact repeats. Equal values may be shown once.
# What was measured:
# [1] = Solubility studies of the activators (saturated solution in isohexane or methylcyclohexane); type: physicochemical; settings: methylcyclohexane
# [2] = as above; type: physicochemical; settings: for Solubility limit in i-hexane (mM at 25° C.) / Solubility limit in i-hexane (wt % at 25° C.): isohexane; for Solubility limit in MeCy (mM at 25° C.): methylcyclohexane
# Description: Solubility Studies of the Activators
# Procedure for Solid Activators.
# A saturated solution of each of the solid ammonium borate activators was prepared by stirring an excess of the activator with either isohexane or methylcyclohexane solvent for several hours at 25° C. The mixture was then filtered and a known volume of the filtrate was evaporated to dryness in a tared vial. The vial was then weighed to determine the mass of activator that was dissolved in the aliquot. The concentration of the saturated solution is presented in millimoles of activator per liter of solution (mM).
# Procedure for Activators that Form Emulsions.
# A saturated solution of the activator was prepared by slowly adding the solvent to a pre-weighed amount of the activator. The final volume was determined as the minimum amount of solvent required to convert the emulsion into a homogeneous solution. The concentration of the saturated solution is presented in millimoles of activator per liter of solution (mM). Alternatively, an emulsion of the activator was prepared by adding the solvent to an excess amount of activator. The resulting emulsion was separated from the undissolved solids by decanting the emulsion into a tared vial. Solvent was then added dropwise until the emulsion became homogeneous. The mass of the final solution was measured and then the solvent was evaporated to dryness to obtain the mass of the activator. The concentration of the saturated solution is presented in millimoles of activator per liter of solution (mM).
# [3] = Propylene homopolymerization in parallel pressure reactor, MCN-1 with ammonium borate activators; settings: propylene, MCN-1 = 20 nmol, activator = 20 nmol, isohexane, TNOAL 500 nmol
# Source text: Polymerization in Parallel Pressure Reactor
# Solvents, polymerization-grade toluene, and isohexane were supplied by ExxonMobil Chemical Company and purified by passing through a series of columns: two 500 cc Oxyclear cylinders in series from Labclear (Oakland, Calif.), followed by two 500 cc columns in series packed with dried 3 Å mole sieves (8-12 mesh; Aldrich Chemical Company), and two 500 cc columns in series packed with dried 5 Å mole sieves (8-12 mesh; Aldrich Chemical Company). 1-octene (C8) and 1-hexene (C6) (98%, Aldrich Chemical Company) were dried by stirring over NaK overnight followed by filtration through basic alumina (Aldrich Chemical Company, Brockman Basic 1).
# Solutions of the metal complexes and activators were prepared in a drybox using toluene or methylcyclohexane. Concentrations were typically 0.2 mmol/L. Tri-n-octylaluminum (TNOAL, neat, AkzoNobel) was typically used as a scavenger. Concentration of the TNOAL solution in toluene ranged from 0.5 to 2.0 mmol/L.
# Polymerizations were carried out in a parallel pressure reactor, as generally described in U.S. Pat. Nos. 6,306,658; 6,455,316; 6,489,168; WO 00/09255; and Murphy, V. et al. (2003) “A Fully Integrated High-Throughput Screening Methodology for the Discovery of New Polyolefin Catalysts: Discovery of a New Class of High Temperature Single-Site Group (IV) Copolymerization Catalysts,” J. Am. Chem. Soc., v. 125, pp. 4306-4317, each of which is fully incorporated herein by reference. […] Although the specific quantities, temperatures, solvents, reactants, reactant ratios, pressures, and other variables are frequently changed from one polymerization run to the next, the following describes a typical polymerization performed in a parallel pressure reactor.
# Catalyst systems dissolved in solution were used in the polymerization examples below, unless specified otherwise.
# RUN A: Propylene Homopolymerization (PP).
# The reactor was prepared as described above and purged with propylene. For the examples in Table 2, the catalyst and activator solutions were prepared in toluene. […] Isohexane was then injected into each vessel at room temperature followed by a predetermined amount of propylene gas. The reactor was heated to the set temperature while stirring at 800 rpm, and the scavenger, activator and catalyst solutions were injected sequentially to each vessel. The polymerization was allowed to proceed as described previously.
# A series of propylene polymerizations were performed in parallel pressure reactors (PPRs) developed by Symyx Technologies, Inc. In these polymerizations, the metallocene rac-dimethylsilyl-bis(indenyl)hafnium dimethyl (MCN-1) was used along with several different ammonium borate activators. Polymerizations were performed at 85° C. and 100° C.
# Propylene homopolymerization (PP).
# A series of propylene polymerizations were performed in the parallel pressure reactor similar to the procedure described above. In these studies rac-dimethylsilyl-bis(indenyl)hafnium dimethyl (MCN-1) was used along with ammonium borate activators.
# [4] = RUN B: ethylene-octene polymerization in parallel pressure reactor, activator diluent toluene or methylcyclohexane; settings: ethylene-octene copolymerization; for activity, molecular weight and co-monomer incorporation with methyl cyclohexane versus toluene as activator diluent: FIGS. 2-4; for activity: Cat 1 (MCN-1)
# Description: RUN B: Polymerization in Parallel Pressure Reactor.
# A series of ethylene-octene polymerizations were performed in the parallel pressure reactor according to the procedure described above. […] In a typical experiment an automated syringe was used to introduce into the reactor the following reagents, if utilized, in the following order: isohexane (0.35 mL), an isohexane solution of TNOAL scavenger (0.005 M, 60 μL), additional isohexane (0.35 mL), a toluene solution of the respective polymerization catalyst (150 μL, 0.4 mM, 20 nm [cat]/100 μL [toluene]), additional isohexane (0.35 mL), a toluene or methylcyclohexane solution of the respective activator (150 μL, 0.4 mM, (20 nm [act]/100 μL[ diluent])), then additional isohexane so that the total solvent volume for each run was 5 mL. Catalyst and activator were used in a 1:1 ratio. Each reaction was performed at a specified temperature range between 50 and 120° C., typically 95° C., while applying about 100 psig of ethylene (monomer) gas. Each reaction was allowed to run for about 1 hour (˜3600 seconds) or until approximately 20 psig of ethylene gas uptake was observed, at which point the reactions were quenched with air (˜300 psig). When sufficient polymer yield was attained (e.g., at least ˜10 mg), the polyethylene product was analyzed by Rapid GPC, described below.
# In a typical experiment, the anilinium borate activators were combined with toluene or methylcyclohexane as diluent and introduced to the parallel, pressure reactor via syringe. By this mechanism of activator introduction, only well dissolved activators could be delivered to the reactor providing a means to discriminate between the polymerization performance of long chain soluble anilinium borates vs. conventional anilinium borates. Following addition of activator, the catalyst Cat 1 was introduced, via syringe as well-dissolved toluene solution and the polymerization was conducted per the methodology described above.
# [5] = activator diluent MeCy (methylcyclohexane)
Compound,Solubility limit in MeCy (wt % at 25° C.) [1] [wt %],Solubility limit in i-hexane (mM at 25° C.) [2] [mM],Solubility limit in i-hexane (wt % at 25° C.) [2] [wt %],Solubility limit in MeCy (mM at 25° C.) [2] [mM],activity ([4]; activator diluent Toluene),further results
"CCCCCCCCCCCCCCCCCC[NH+](CCCCCCCCCCCCCCCCCC)c1c(C)cc(C)cc1C.Fc1c(F)c(F)c2c(F)c([B-](c3c(F)c(F)c4c(F)c(F)c(F)c(F)c4c3F)(c3c(F)c(F)c4c(F)c(F)c(F)c(F)c4c3F)c3c(F)c(F)c4c(F)c(F)c(F)c(F)c4c3F)c(F)c(F)c2c1F [DOdMH-BF28, 2,4,6-trimethyl-N,N-dioctadecylbenzenaminium-BF28]",>42,7.6,0.70,>180,–,–
"CCCCCCc1ccc([NH+](C)C)cc1.Fc1c(F)c(F)c([B-](c2c(F)c(F)c(F)c(F)c2F)(c2c(F)c(F)c(F)c(F)c2F)c2c(F)c(F)c(F)c(F)c2F)c(F)c1F [Hex-DMAH-BF20, 4-hexyl-N,N-dimethylanilinium-BF20]",–,–,–,–,–,"activity ([3]; 85 °C, 135 psi): 150 kg/mmol/h and 163 kg/mmol/h and 192 kg/mmol/h; activity ([3]; 100 °C, 150 psi): 47 kg/mmol/h and 81 kg/mmol/h and 75 kg/mmol/h"
CCCCCCCCCCCCCCCCCC[NH+](C)c1ccc(CCCC)cc1.Fc1c(F)c(F)c2c(F)c([B-](c3c(F)c(F)c4c(F)c(F)c(F)c(F)c4c3F)(c3c(F)c(F)c4c(F)c(F)c(F)c(F)c4c3F)c3c(F)c(F)c4c(F)c(F)c(F)c(F)c4c3F)c(F)c(F)c2c1F [LCSA 1],–,–,–,–,413.4 kg/mmol/h and 510.6 kg/mmol/h and 426.4 kg/mmol/h and 452.7 kg/mmol/h,"activity, molecular weight and co-monomer incorporation with methyl cyclohexane versus toluene as activator diluent ([4]; Cat 1): remain approximately the same; activity [4, 5]: 332.7 kg/mmol/h and 377.7 kg/mmol/h and 393.6 kg/mmol/h and 367.2 kg/mmol/h"
CCCCCCCCCCCCCCCCCCc1ccc([NH+](C)CCCCCCCCCCCCCCCCCC)cc1.Fc1c(F)c(F)c2c(F)c([B-](c3c(F)c(F)c4c(F)c(F)c(F)c(F)c4c3F)(c3c(F)c(F)c4c(F)c(F)c(F)c(F)c4c3F)c3c(F)c(F)c4c(F)c(F)c(F)c(F)c4c3F)c(F)c(F)c2c1F [LCSA 2],–,–,–,–,477.7 kg/mmol/h and 430.3 kg/mmol/h and 405.6 kg/mmol/h and 423.2 kg/mmol/h,"activity, molecular weight and co-monomer incorporation with methyl cyclohexane versus toluene as activator diluent ([4]; Cat 1): remain approximately the same; activity [4, 5]: 451.4 kg/mmol/h and 388.5 kg/mmol/h and 412.4 kg/mmol/h and 455.5 kg/mmol/h"
CCCCCCCCCCCCCCCCCCc1ccc([NH+](CCCCCCCCCCCCCCCCCC)CCCCCCCCCCCCCCCCCC)cc1.Fc1c(F)c(F)c2c(F)c([B-](c3c(F)c(F)c4c(F)c(F)c(F)c(F)c4c3F)(c3c(F)c(F)c4c(F)c(F)c(F)c(F)c4c3F)c3c(F)c(F)c4c(F)c(F)c(F)c(F)c4c3F)c(F)c(F)c2c1F [LCSA 3],–,–,–,–,290.6 kg/mmol/h and 278.0 kg/mmol/h and 289.7 kg/mmol/h and 278.3 kg/mmol/h,"activity, molecular weight and co-monomer incorporation with methyl cyclohexane versus toluene as activator diluent ([4]; Cat 1): remain approximately the same; activity [4, 5]: 280.6 kg/mmol/h and 257.6 kg/mmol/h and 334.9 kg/mmol/h and 360.9 kg/mmol/h"
"N,N-dimethyl anilinium tetrakis(perfluorobiphenyl) [C3, reference compound]",–,–,–,–,692.3 kg/mmol/h and 711.1 kg/mmol/h and 841.8 kg/mmol/h and 803.7 kg/mmol/h,"quantity of polymer obtained with methylcyclohexane as diluent ([4]; Cat 1, activator in methylcyclohexane): insufficient for analysis"

# Continued, in another order:
Solubility limit in MeCy (wt % at 25° C.) [1] [wt %],Solubility limit in i-hexane (mM at 25° C.) [2] [mM],Solubility limit in i-hexane (wt % at 25° C.) [2] [wt %],Solubility limit in MeCy (mM at 25° C.) [2] [mM],Compound,activity ([4]; activator diluent Toluene),further results
3.0,2.0,0.32,21,"CCCCCCCCCC[NH+](CCCCCCCCCC)c1ccc(CCCC)cc1.Fc1c(F)c(F)c([B-](c2c(F)c(F)c(F)c(F)c2F)(c2c(F)c(F)c(F)c(F)c2F)c2c(F)c(F)c(F)c(F)c2F)c(F)c1F [DDBAH-BF20, 4-butyl-N,N-didecylbenzenaminium-BF20]",–,–
3.3,2.2,0.47,17,"CCCCCCCCCC[NH+](CCCCCCCCCC)c1ccc(CCCC)cc1.Fc1c(F)c(F)c2c(F)c([B-](c3c(F)c(F)c4c(F)c(F)c(F)c(F)c4c3F)(c3c(F)c(F)c4c(F)c(F)c(F)c(F)c4c3F)c3c(F)c(F)c4c(F)c(F)c(F)c(F)c4c3F)c(F)c(F)c2c1F [DDBAH-BF28, 4-butyl-N,N-didecylbenzenaminium-BF28]",–,–
0.21,1.5,0.22,1.7,"CCCCCCCCCC[NH+](CCCCCCCCCC)c1ccc(C)cc1.Fc1c(F)c(F)c([B-](c2c(F)c(F)c(F)c(F)c2F)(c2c(F)c(F)c(F)c(F)c2F)c2c(F)c(F)c(F)c(F)c2F)c(F)c1F [DDTH-BF20, N,N-didecyl-4-methylanilinium-BF20]",–,–
0.63,1.8,0.35,3.7,"CCCCCCCCCC[NH+](CCCCCCCCCC)c1ccc(C)cc1.Fc1c(F)c(F)c2c(F)c([B-](c3c(F)c(F)c4c(F)c(F)c(F)c(F)c4c3F)(c3c(F)c(F)c4c(F)c(F)c(F)c(F)c4c3F)c3c(F)c(F)c4c(F)c(F)c(F)c(F)c4c3F)c(F)c(F)c2c1F [DDTH-BF28, N,N-didecyl-4-methylanilinium-BF28]",–,–
>40,2.9,1.9,> 200,"CCCCCCCCCCCCCCCCCC[NH+](CCCCCCCCCCCCCCCCCC)c1ccccc1C(C)C.Fc1c(F)c(F)c2c(F)c([B-](c3c(F)c(F)c4c(F)c(F)c(F)c(F)c4c3F)(c3c(F)c(F)c4c(F)c(F)c(F)c(F)c4c3F)c3c(F)c(F)c4c(F)c(F)c(F)c(F)c4c3F)c(F)c(F)c2c1F [DOdPAH-BF28, 2-isopropyl-N,N-dioctadecylbenzenaminium-BF28]",–,–
